Publication PMC5967881 (Journal of medicinal chemistry, 2017)
Values joined by “and” are separate entries in the source; they are usually repeats but may differ in a detail not shown here. Equal values may be shown once.

Each compound was assayed on A/Washington/29/2009 (H1N1) (assay: microbe, parasite or virus in culture). Conditions: Influenza A virus, H1N1, read-out: EC50 against A/Washington/29/2009 (H1N1).
Format: cell-based

Row | Compound | EC50 [nM]
1 | Clc1ccc(-c2cc(CNC34CC5CC(CC(C5)C3)C4)no2)s1 [9q, N-((5-(5-chlorothiophen-2-yl)isoxazol-3-yl)methyl)adamantan-1-amine] | 100 to 200

Each compound was assayed against AM2-S31N proton channel (Influenza A virus, UniProt P0DOF5, S31N) (assay: not given). Conditions: pH 5.5, 100 µM.
Format: biochemical

Row | Compound | Electrophysiological TEVC assay (% S31N channel inhibition) [%]
2 | N-((5-(2-(methylsulfonyl)phenyl)isoxazol-3-yl)methyl)adamantan-1-amine [9m] | 47.4 ± 0.5

Same assay, conditions: pH 5.5, 100 µM; 100 µM

Row | Compound | Electrophysiological TEVC assay (% S31N channel inhibition)
3 | 3-({[5-(3-methoxythiophen-2-yl)-1,2-oxazol-3-yl]methyl}amino)adamantan-1-ol [9s] | 83.8 ± 3.3%
4 | c1ccc(-c2cc(CNC34CC5CC(CC(C5)C3)C4)no2)cc1 [9a, N-[(5-phenyl-1,2-oxazol-3-yl)methyl]adamantan-1-amine] | 91.2 ± 1.5%
5 | OC12CC3CC(C1)CC(NCc1cc(-c4ccccc4Cl)on1)(C3)C2 [9d, 3-({[5-(2-chlorophenyl)-1,2-oxazol-3-yl]methyl}amino)adamantan-1-ol] | > 70%
6 | CSc1ccccc1-c1cc(CNC23CC4CC(CC(O)(C4)C2)C3)no1 [9f, 3-[({5-[2-(methylsulfanyl)phenyl]-1,2-oxazol-3-yl}methyl)amino]adamantan-1-ol] | > 70% and > 90%
7 | Oc1ccccc1-c1cc(CNC23CC4CC(CC(C4)C2)C3)no1 [9h, 2-(3-(((adamantan-1-yl)amino)methyl)isoxazol-5-yl)phenol] | > 70%
8 | Clc1ccc(-c2cc(CNC34CC5CC(CC(C5)C3)C4)no2)s1 [9q, N-((5-(5-chlorothiophen-2-yl)isoxazol-3-yl)methyl)adamantan-1-amine] | > 70%
9 | Clc1cc(-c2cc(CNC34CC5CC(CC(C5)C3)C4)no2)cs1 [9r, N-((5-(5-chlorothiophen-3-yl)isoxazol-3-yl)methyl)adamantan-1-amine] | > 70%
10 | COc1sccc1-c1cc(CNC23CC4CC(CC(C4)C2)C3)no1 [9t, N-((5-(2-methoxythiophen-3-yl)isoxazol-3-yl)methyl)adamantan-1-amine] | > 70%
11 | Clc1cc(-c2cc(CNC34CC5CC(CC(C5)C3)C4)no2)c(Cl)s1 [9u, N-((5-(2,5-dichlorothiophen-3-yl)isoxazol-3-yl)methyl)adamantan-1-amine] | > 70%
12 | OC12CC3CC(C1)CC(NCc1cc(-c4cc(Cl)sc4Cl)on1)(C3)C2 [9v, 3-({[5-(2,5-dichlorothiophen-3-yl)-1,2-oxazol-3-yl]methyl}amino)adamantan-1-ol] | > 70%

Each compound was assayed on A/Denmark/528/2009 (H1N1) (assay: microbe, parasite or virus in culture). Conditions: Influenza A virus, H1N1, read-out: EC50 against A/Denmark/528/2009 (H1N1).
Format: cell-based

Row | Compound | EC50 [nM]
13 | Clc1ccc(-c2cc(CNC34CC5CC(CC(C5)C3)C4)no2)s1 [9q, N-((5-(5-chlorothiophen-2-yl)isoxazol-3-yl)methyl)adamantan-1-amine] | 100 to 200
